Measured values from patent US8192962B2, “Processes for detecting toxic substances” (Daikin Industries, Ltd., priority 2001, dated 2012).

Test system: Unknown protein yeast genes
Test: DNA chip mRNA expression in yeast, unknown protein yeast genes (Table 1)
Assay type: cell-based, Saccharomyces cerevisiae S288C
In short: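 S. cerevisiae S288C grown at 25° C. in YPD to log phase, then exposed 2 h to a toxicant at a growth-inhibiting, non-lethal concentration; untreated cells as control. Poly(A) mRNA reverse-transcribed with Cy3-dUTP or Cy5-dUTP, hybridized >12 h at 65° C. to whole-genome yeast DNA chip; value = fluorescence ratio treated/untreated.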

SMILES: CCCCCCCCCCCCOS(=O)(=O)[O-].[Na+] [(18), sodium lauryl sulfate]
- The level of expressed mRNA in the presence of chemical substance/The level of expressed mRNA in the absence of chemical substance (yeast gene YAL053W, incubated two hours with chemical substance): 1.6
- The level of expressed mRNA in the presence of chemical substance/The level of expressed mRNA in the absence of chemical substance (yeast gene YBL048W): 1.0
- The level of expressed mRNA in the presence of chemical substance/The level of expressed mRNA in the absence of chemical substance (yeast gene YBL107C): 1.4
- The level of expressed mRNA in the presence of chemical substance/The level of expressed mRNA in the absence of chemical substance (yeast gene YDL072C, incubated two hours with chemical substance): 2.8
- The level of expressed mRNA in the presence of chemical substance/The level of expressed mRNA in the absence of chemical substance (yeast gene YDL110C): 4.4
- The level of expressed mRNA in the presence of chemical substance/The level of expressed mRNA in the absence of chemical substance (yeast gene YDL204W, incubated two hours with chemical substance): 2.7
- The level of expressed mRNA in the presence of chemical substance/The level of expressed mRNA in the absence of chemical substance (yeast gene YDL222C, incubated two hours with chemical substance): 1.3
- The level of expressed mRNA in the presence of chemical substance/The level of expressed mRNA in the absence of chemical substance (yeast gene YDR330W, incubated two hours with chemical substance): 1.3
- The level of expressed mRNA in the presence of chemical substance/The level of expressed mRNA in the absence of chemical substance (yeast gene YDR391C, incubated two hours with chemical substance): 2.4
- The level of expressed mRNA in the presence of chemical substance/The level of expressed mRNA in the absence of chemical substance (yeast gene YDR411C, incubated two hours with chemical substance): 1.3
- The level of expressed mRNA in the presence of chemical substance/The level of expressed mRNA in the absence of chemical substance (yeast gene YDR511W, incubated two hours with chemical substance): 1.5
- The level of expressed mRNA in the presence of chemical substance/The level of expressed mRNA in the absence of chemical substance (yeast gene YDR533C): 2.7
- The level of expressed mRNA in the presence of chemical substance/The level of expressed mRNA in the absence of chemical substance (yeast gene YDR545W, incubated two hours with chemical substance): 0.9
- The level of expressed mRNA in the presence of chemical substance/The level of expressed mRNA in the absence of chemical substance (yeast gene YEL001C, incubated two hours with chemical substance): 1.3
- The level of expressed mRNA in the presence of chemical substance/The level of expressed mRNA in the absence of chemical substance (yeast gene YER004W, incubated two hours with chemical substance): 1.2
- The level of expressed mRNA in the presence of chemical substance/The level of expressed mRNA in the absence of chemical substance (yeast gene YER035W, incubated two hours with chemical substance): 2.1
- The level of expressed mRNA in the presence of chemical substance/The level of expressed mRNA in the absence of chemical substance (yeast gene YER079W, incubated two hours with chemical substance): 1.6
- The level of expressed mRNA in the presence of chemical substance/The level of expressed mRNA in the absence of chemical substance (yeast gene YER106W, incubated two hours with chemical substance): 0.8
- The level of expressed mRNA in the presence of chemical substance/The level of expressed mRNA in the absence of chemical substance (yeast gene YER158C, incubated two hours with chemical substance): 1.2
- The level of expressed mRNA in the presence of chemical substance/The level of expressed mRNA in the absence of chemical substance (yeast gene YER163C, incubated two hours with chemical substance): 1.2
- The level of expressed mRNA in the presence of chemical substance/The level of expressed mRNA in the absence of chemical substance (yeast gene YER175C, incubated two hours with chemical substance): 1.2
- The level of expressed mRNA in the presence of chemical substance/The level of expressed mRNA in the absence of chemical substance (yeast gene YFL006W, incubated two hours with chemical substance): 0.8
- The level of expressed mRNA in the presence of chemical substance/The level of expressed mRNA in the absence of chemical substance (yeast gene YFL010C, incubated two hours with chemical substance): 1.6
- The level of expressed mRNA in the presence of chemical substance/The level of expressed mRNA in the absence of chemical substance (yeast gene YFL024C): 0.8
- The level of expressed mRNA in the presence of chemical substance/The level of expressed mRNA in the absence of chemical substance (yeast gene YFL032W, incubated two hours with chemical substance): 0.8
- The level of expressed mRNA in the presence of chemical substance/The level of expressed mRNA in the absence of chemical substance (yeast gene YGL037C, incubated two hours with chemical substance): 2.6
- The level of expressed mRNA in the presence of chemical substance/The level of expressed mRNA in the absence of chemical substance (yeast gene YGL047W, incubated two hours with chemical substance): 1.2
- The level of expressed mRNA in the presence of chemical substance/The level of expressed mRNA in the absence of chemical substance (yeast gene YGL053W, incubated two hours with chemical substance): 3.7
- The level of expressed mRNA in the presence of chemical substance/The level of expressed mRNA in the absence of chemical substance (yeast gene YGL121C): 3.5
- The level of expressed mRNA in the presence of chemical substance/The level of expressed mRNA in the absence of chemical substance (yeast gene YGL199C, incubated two hours with chemical substance): 1.0
- The level of expressed mRNA in the presence of chemical substance/The level of expressed mRNA in the absence of chemical substance (yeast gene YGR101W, incubated two hours with chemical substance): 1.1
- The level of expressed mRNA in the presence of chemical substance/The level of expressed mRNA in the absence of chemical substance (yeast gene YGR110W): 2.1
- The level of expressed mRNA in the presence of chemical substance/The level of expressed mRNA in the absence of chemical substance (yeast gene YGR130C, incubated two hours with chemical substance): 1.6
- The level of expressed mRNA in the presence of chemical substance/The level of expressed mRNA in the absence of chemical substance (yeast gene YGR154C, incubated two hours with chemical substance): 1.2
- The level of expressed mRNA in the presence of chemical substance/The level of expressed mRNA in the absence of chemical substance (yeast gene YGR221C, incubated two hours with chemical substance): 1.3
- The level of expressed mRNA in the presence of chemical substance/The level of expressed mRNA in the absence of chemical substance (yeast gene YGR243W): 4.4
- The level of expressed mRNA in the presence of chemical substance/The level of expressed mRNA in the absence of chemical substance (yeast gene YHR054C): 3.4
- The level of expressed mRNA in the presence of chemical substance/The level of expressed mRNA in the absence of chemical substance (yeast gene YHR138C, incubated two hours with chemical substance): 7.1
- The level of expressed mRNA in the presence of chemical substance/The level of expressed mRNA in the absence of chemical substance (yeast gene YHR199C, incubated two hours with chemical substance): 0.9
- The level of expressed mRNA in the presence of chemical substance/The level of expressed mRNA in the absence of chemical substance (yeast gene YHR209W): 2.6
- The level of expressed mRNA in the presence of chemical substance/The level of expressed mRNA in the absence of chemical substance (yeast gene YIL023C, incubated two hours with chemical substance): 1.0
- The level of expressed mRNA in the presence of chemical substance/The level of expressed mRNA in the absence of chemical substance (yeast gene YIL041W, incubated two hours with chemical substance): 1.1
- The level of expressed mRNA in the presence of chemical substance/The level of expressed mRNA in the absence of chemical substance (yeast gene YIL087C, incubated two hours with chemical substance): 1.6
- The level of expressed mRNA in the presence of chemical substance/The level of expressed mRNA in the absence of chemical substance (yeast gene YJL057C, incubated two hours with chemical substance): 1.5
- The level of expressed mRNA in the presence of chemical substance/The level of expressed mRNA in the absence of chemical substance (yeast gene YJL066C, incubated two hours with chemical substance): 1.5
- The level of expressed mRNA in the presence of chemical substance/The level of expressed mRNA in the absence of chemical substance (yeast gene YJL082W, incubated two hours with chemical substance): 0.3
- The level of expressed mRNA in the presence of chemical substance/The level of expressed mRNA in the absence of chemical substance (yeast gene YJL151C, incubated two hours with chemical substance): 2.4
- The level of expressed mRNA in the presence of chemical substance/The level of expressed mRNA in the absence of chemical substance (yeast gene YJL152W, incubated two hours with chemical substance): 1.7
- The level of expressed mRNA in the presence of chemical substance/The level of expressed mRNA in the absence of chemical substance (yeast gene YJL161W, incubated two hours with chemical substance): 2.1
- The level of expressed mRNA in the presence of chemical substance/The level of expressed mRNA in the absence of chemical substance (yeast gene YJL171C, incubated two hours with chemical substance): 2.9
- The level of expressed mRNA in the presence of chemical substance/The level of expressed mRNA in the absence of chemical substance (yeast gene YJR008W, incubated two hours with chemical substance): 2.7
- The level of expressed mRNA in the presence of chemical substance/The level of expressed mRNA in the absence of chemical substance (yeast gene YJR054W, incubated two hours with chemical substance): 0.9
- The level of expressed mRNA in the presence of chemical substance/The level of expressed mRNA in the absence of chemical substance (yeast gene YKL071W): 0.9
- The level of expressed mRNA in the presence of chemical substance/The level of expressed mRNA in the absence of chemical substance (yeast gene YKL086W, incubated two hours with chemical substance): 1.0
